Values joined by “and” are separate entries in the source; they are usually repeats but may differ in a detail not shown here. Identical values can stand only once. Active and inactive are the calls of the source.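 How the source made its calls: active means compounds giving half or more protection of infected cells from virus-caused growth loss, again on retest; inactive means the rest.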
System: CEM cells HIV-1 protection, formazan growth assay
Test: NCI AIDS Antiviral Assay
Settings: for IC50: measured here: growth of uninfected CEM cells
Method in brief: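 Protection of CEM cells against HIV-1 measured as cell growth via soluble formazan read-out, with five concentrations tested on both infected and uninfected cells; failure to protect may reflect toxicity.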

SMILES	EC50	IC50	outcome
N=C(N)c1ccc(C(NC(=O)CNS(=O)(=O)c2ccc3ccccc3c2)P(=O)(Oc2ccccc2)Oc2ccccc2)cc1 (stereo not given)	0.741 µM	7.08 µM	–
CN1N=C(c2ccccc2)C(C(c2ccccc2[N+](=O)[O-])C2C(=O)N(C)N=C2c2ccccc2)C1=O (stereo not given)	> 81.3 µM	15.8 µM	–
O=C1CN(c2ccc(Cl)cc2)C(=O)CN1CCN1CC(=O)N(c2ccc(Cl)cc2)CC1=O	> 200 µM	> 200 µM	–
CC(=O)c1ccc2c(c1)CC1(C2)Cc2cc3c(c(C(=O)O)c2C1)CCC3 (stereo not given)	> 200 µM	61.7 µM	–
O=C1[C@H](O)[C@@H]2C(O)O[C@H]3[C@@H]2N1C[C@H]3[Si](c1ccccc1)(c1ccccc1)c1ccccc1 (stereo not given in full)	> 200 µM	> 200 µM	–
CCOC(=O)C1(C#N)C(C#N)(C#N)C1(CC)CC (stereo not given)	> 200 µM	66.1 µM	–
CSC1=N/C(=C\c2ccco2)C(=O)N1CN1CCCCC1	> 200 µM	102 µM	–
CC(=O)N/C(=C\c1cccc([N+](=O)[O-])c1)c1nc2c3c(ccc2[nH]1)C(=O)c1ccccc1C3=O	–	–	inactive
CC1=C(C#N)C(=O)N(/N=C/c2ccc(Cl)cc2)C(=O)/C1=c1\o/c(=C2/C(=O)N(/N=C/c3ccc(Cl)cc3)C(=O)C(C#N)=C2C)c2nccnc12	> 200 µM	110 µM	–
O=C1C(=O)N(C(=O)c2ccc(Cl)c(Cl)c2)c2ccc(Cl)cc21	–	–	inactive
Cc1nn(C(=O)CC(=O)Nc2ccccc2)c(C)c1N=Nc1ccccc1F	–	–	inactive
COc1cc2c3c(c1)SCC(=O)N3CCN2	> 200 µM	> 100 µM	–
Cc1oc2cc(O)ccc2c(=O)c1-c1ccccc1	> 200 µM	30.2 µM	–
NCCCC[C@H](NC(=O)[C@H](CS)NC(=O)[C@@H](N)Cc1cnc[nH]1)C(=O)N[C@H](Cc1ccc(O)cc1)C(=O)N[C@@H](Cc1c[nH]c2ccccc12)C(=O)N[C@@H](Cc1c[nH]c2ccccc12)C(N)=O	> 200 µM	> 200 µM	–
NC(CSSCC(N)=NCC12CC3CC(CC(C3)C1)C2)=NCC12CC3CC(CC(C3)C1)C2	> 200 µM	30.9 µM	–
C(=N\NC1=NCCCN1)/c1ccc(-c2cn3cc(/C=N/NC4=NCCCN4)ccc3n2)cc1	> 100 µM	18.6 µM	–
CCOC(=O)C1=C(SC)SC(C(=O)OCC)C2C=C(C)C=CN12 (stereo not given)	> 102 µM	45.7 µM	–
CCCCCCCCCCCCCCCCCCNc1nc(=O)n(C2CC(O)C(COP(=O)(O)OCC3OC(n4cc(C)c(=O)[nH]c4=O)CC3N=[N+]=[N-])O2)cc1F (stereo not given)	0.759 µM	3.63 µM	–
CC[C@@H](C)C(=O)O[C@@H]1CC[C@]2(CO2)C2(COC(C)=O)C(OC(C)=O)CC(C)[C@](C)(C[C@H](O)C3=CC(=O)OC3)[C@@H]12 (stereo not given in full)	–	–	inactive
Cc1ccc(-c2cc(-c3ccco3)c(C#N)c(=S)n2C2OC(CO)C(O)C(O)C2O)cc1 (stereo not given)	> 200 µM	9.33 µM and 57.5 µM	–
CCOC(=O)N1CCN(c2ccc3c(C)cc(C)nc3n2)CC1	> 200 µM	> 200 µM	–

SMILES	EC50	IC50	outcome
CO/C(=N\N=C\c1cccc(C(F)(F)F)c1)c1ccncc1	> 117 µM	12.6 µM	–
FC(F)(F)c1nc2ccc(SSc3ccc4nc(C(F)(F)F)[nH]c4c3)cc2[nH]1	> 100 µM	91.2 µM	–
CN1CCC2(CC1)N=C1CCN(C)CC1S2 (stereo not given)	> 457 µM	87.1 µM	–
CCCCN(CC)C(=O)C(=O)Cc1nc2ccc(C(=O)c3ccccc3)cc2[nH]c1=O	> 17.4 µM	> 17.4 µM	–
Cc1ccc(C(=O)/C(C#N)=C/Nc2c(C)n(C)n(-c3ccccc3)c2=O)cc1	> 200 µM	> 200 µM	–
COCOc1c(C(OCOC)c2cnc(Sc3ccccc3)n2C)ccc(OC)c1OC (stereo not given)	> 200 µM	110 µM	–
Cc1c(/C=N/NC(=S)Nc2ccccc2Cl)c(=O)n(-c2ccccc2)n1C	> 200 µM	26.9 µM	–
CCOC(=O)c1ccc(CS(=O)c2ccc(OC)cc2)c([N+](=O)[O-])c1 (stereo not given)	> 100 µM	12.3 µM	–
COc1cc2c(c(OC)c1O)-c1ccc(OC)c(=O)cc1[C@@H](NC(=O)C(F)(F)F)CC2	> 2 µM	0.0363 µM	–
CCOC(=O)C1=CNC(C(=O)OCC)C1c1cccn1-c1ccc(Cl)cc1[N+](=O)[O-] (stereo not given)	> 200 µM	26.3 µM	–
O=c1c2ccccc2nc(-c2ccccc2)n1NC(=S)Nc1ccc(Cl)cc1	> 123 µM	107 µM	–
CCN1C[C@]2(COC)[C@H](O)C[C@H](OC)[C@]34C1[C@H]([C@H](OC)[C@H]23)[C@]1(OC(C)=O)[C@H]2[C@@H](OC(=O)c3ccccc3)[C@](O)(C[C@H]24)[C@@H](OC)[C@@H]1O	–	–	inactive
Nc1nc2ncn(CC(O)CO)c2c(=O)[nH]1 (stereo not given)	> 60.3 µM	> 60.3 µM	–
C#CCC(C#C)N(CCc1ccsc1)Cc1ccccc1 (stereo not given)	> 200 µM	67.6 µM	–
COC1=CC=C2CC(=C1)CCC1C2CCC2(C)C(=O)CCC12 (stereo not given)	–	–	inactive
O=C(Nc1ccc2c(O)cc(S(=O)(=O)O)cc2c1)Nc1ccc2c(O)cc(S(=O)(=O)O)cc2c1	64.6 µM	155 µM	–
COc1cc(-c2cc(=O)c3cc4c(=O)cc(-c5cc(OC)c(OC)c(OC)c5)oc4cc3o2)cc(OC)c1OC	> 100 µM	> 100 µM	–
CSc1nc(-c2ccccc2)c2c(n1)-c1ccccc1CC2	> 12.3 µM	> 12.3 µM	–
O=C1NC(=O)C2C1c1[nH]c3ccccc3c1C1CCCC12 (stereo not given)	–	–	inactive
Cc1cn(C2CC(N=[N+]=[N-])C(COP(=O)(OCC(=O)c3ccco3)OCC(=O)c3ccco3)O2)c(=O)[nH]c1=O (stereo not given)	0.00457 µM	2 µM	–
